Measurements taken from ChEMBL document CHEMBL4043168, “The design and SAR of a novel series of 2-aminopyridine based LRRK2 inhibitors” (Bioorg Med Chem Lett, 2017).

Key:
[1] = molecular target: Tyrosine-protein kinase ABL1 (Homo sapiens) (UniProt P00519); experiment: Inhibition of ABL labeling at activation Loop (LMTGDTYTAHAGAKFPIK) in human PBMC at 1 uM
[2] = molecular target: Tyrosine-protein kinase ABL2 (Homo sapiens) (UniProt P42684); experiment: Inhibition of ARG labeling at […] (LMTGDTYTAHAGAKFPIK) in human PBMC at 1 uM
[3] = molecular target: 5'-AMP-activated protein kinase catalytic subunit alpha-1 (Homo sapiens) (UniProt Q13131); experiment: Inhibition of AMPKa1 labeling at conserved Lys1 (VAVKILNR) in human PBMC at 1 uM
[4] = molecular target: 5'-AMP-activated protein kinase catalytic subunit alpha-2 (Homo sapiens) (UniProt P54646); experiment: Inhibition of AMPKa2 labeling at conserved Lys2 (DLKPENVLLDAHMNAK) in human PBMC at 1 uM
[5] = molecular target: Serine/threonine-protein kinase B-raf (Homo sapiens) (UniProt P15056); experiment: Inhibition of BRAF labeling at conserved Lys2 (DLKSNNIFLHEDLTVK) in human PBMC at 1 uM
[6] = molecular target: Diacylglycerol kinase alpha (Homo sapiens) (UniProt P23743); experiment: Inhibition of DGKA labeling at activation Loop (IDPVPNTHPLLVFVNPKSGGK) in human PBMC at 1 uM
[7] = molecular target: Mitogen-activated protein kinase kinase kinase kinase 5 (Homo sapiens) (UniProt Q9Y4K4); experiment: Inhibition of KHS1 conserved Lys1 (NVHTGELAAVKIIK) in human PBMC at 1 uM
[8] = molecular target: Leucine-rich repeat serine/threonine-protein kinase 2 (Homo sapiens, UniProt Q5S007); experiment: Inhibition of LRRK2 conserved Lys2 (DLKPHNVLLFTLYPNAAIIAK) in human PBMC at 1 uM
[9] = molecular target: Mitogen-activated protein kinase kinase kinase 4 (Homo sapiens) (UniProt Q9Y6R4); experiment: Inhibition of MAP3K4 conserved Lys2 (DIKGANIFLTSSGLIK) in human PBMC at 1 uM
[10] = molecular target: Serine/threonine-protein kinase SIK3 (Homo sapiens) (UniProt Q9Y2K2); experiment: Inhibition of QSK conserved Lys1 (VAIKIIDKTQLDEENLKK) in human PBMC at 1 uM
[11] = molecular target: Serine/threonine-protein kinase Sgk3 (Homo sapiens) (UniProt Q96BR1); experiment: Inhibition of SGK3 conserved Lys1 (FYAVKVLQK) in human PBMC at 1 uM
[12] = molecular target: Myosin light chain kinase, smooth muscle (Homo sapiens) (UniProt Q15746); experiment: Inhibition of smMLCK conserved Lys1 (VWAGKFFK) in human PBMC at 1 uM
[13] = molecular target: Calcium/calmodulin-dependent protein kinase type II subunit gamma (Homo sapiens) (UniProt Q13555); experiment: Inhibition of CaMK2g labeling at conserved Lys2 (DLKPENLLLASK) in human PBMC at 0.1 uM
[14] = molecular target: Cyclin-dependent kinase 1 (Homo sapiens) (UniProt P06493); experiment: Inhibition of CDC2 labeling at conserved Lys2 (DLKPQNLLIDDKGTIK) in human PBMC at 0.1 uM
[15] = molecular target: Serine/threonine-protein kinase 10 (Homo sapiens) (UniProt O94804); experiment: Inhibition of LOK conserved Lys2 (DLKAGNVLMTLEGDIR) in human PBMC at 0.1 uM
[16] = molecular target: Serine/threonine-protein kinase 25 (Homo sapiens) (UniProt O00506); experiment: Inhibition of YSK1 conserved Lys2 (DIKAANVLLSEQGDVK) in human PBMC at 0.1 uM
[17] = molecular target: T1, Phosphatidylinositol 4,5-bisphosphate 3-kinase catalytic subunit delta isoform (Homo sapiens) (UniProt O00329); experiment: Inhibition of PIK3CD ATP binding site (VNWLAHNVSKDNRQ) in human PBMC at 0.1 uM
T1 sequence (whole entry): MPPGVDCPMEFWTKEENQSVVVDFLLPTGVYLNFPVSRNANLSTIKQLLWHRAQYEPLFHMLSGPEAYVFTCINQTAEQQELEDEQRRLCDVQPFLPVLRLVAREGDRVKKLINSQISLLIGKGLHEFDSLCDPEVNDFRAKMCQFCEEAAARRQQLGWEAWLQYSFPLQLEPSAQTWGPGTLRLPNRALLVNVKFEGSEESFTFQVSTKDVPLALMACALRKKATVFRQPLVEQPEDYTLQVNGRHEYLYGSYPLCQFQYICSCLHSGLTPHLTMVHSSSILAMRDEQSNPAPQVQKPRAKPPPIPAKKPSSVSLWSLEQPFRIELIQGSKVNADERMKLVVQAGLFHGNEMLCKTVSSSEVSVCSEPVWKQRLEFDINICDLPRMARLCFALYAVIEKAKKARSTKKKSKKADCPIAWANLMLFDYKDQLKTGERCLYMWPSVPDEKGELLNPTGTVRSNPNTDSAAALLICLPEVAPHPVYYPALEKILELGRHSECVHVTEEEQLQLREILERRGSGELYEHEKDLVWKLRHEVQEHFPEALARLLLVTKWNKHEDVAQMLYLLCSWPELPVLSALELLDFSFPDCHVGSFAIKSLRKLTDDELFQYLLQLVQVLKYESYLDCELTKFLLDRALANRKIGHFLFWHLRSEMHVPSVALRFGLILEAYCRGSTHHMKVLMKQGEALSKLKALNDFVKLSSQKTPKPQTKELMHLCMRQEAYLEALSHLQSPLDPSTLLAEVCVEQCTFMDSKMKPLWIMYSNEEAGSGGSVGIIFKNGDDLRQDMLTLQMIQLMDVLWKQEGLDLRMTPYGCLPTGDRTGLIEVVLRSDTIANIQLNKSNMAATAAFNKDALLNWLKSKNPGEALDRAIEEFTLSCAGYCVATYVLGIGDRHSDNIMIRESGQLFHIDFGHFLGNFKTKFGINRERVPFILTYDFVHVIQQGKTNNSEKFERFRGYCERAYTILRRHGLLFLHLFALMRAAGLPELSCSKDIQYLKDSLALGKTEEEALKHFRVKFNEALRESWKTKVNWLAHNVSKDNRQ

[18] = molecular target: Ribosomal protein S6 kinase alpha-2 (Homo sapiens) (UniProt Q15349); experiment: Inhibition of RSK3 domain1 conserved Lys2 (DLKPENILLDEEGHIKITDFGLSK) in human PBMC at 0.1 uM
[19] = molecular target: Mitogen-activated protein kinase kinase kinase kinase 2 (Homo sapiens) (UniProt Q12851); experiment: Inhibition of GCK conserved Lys2 (DIKGANLLLTLQGDVK) in human PBMC at 0.1 uM

Chain of Leucine-rich repeat serine/threonine-protein kinase 2 (Q5S007 whole entry): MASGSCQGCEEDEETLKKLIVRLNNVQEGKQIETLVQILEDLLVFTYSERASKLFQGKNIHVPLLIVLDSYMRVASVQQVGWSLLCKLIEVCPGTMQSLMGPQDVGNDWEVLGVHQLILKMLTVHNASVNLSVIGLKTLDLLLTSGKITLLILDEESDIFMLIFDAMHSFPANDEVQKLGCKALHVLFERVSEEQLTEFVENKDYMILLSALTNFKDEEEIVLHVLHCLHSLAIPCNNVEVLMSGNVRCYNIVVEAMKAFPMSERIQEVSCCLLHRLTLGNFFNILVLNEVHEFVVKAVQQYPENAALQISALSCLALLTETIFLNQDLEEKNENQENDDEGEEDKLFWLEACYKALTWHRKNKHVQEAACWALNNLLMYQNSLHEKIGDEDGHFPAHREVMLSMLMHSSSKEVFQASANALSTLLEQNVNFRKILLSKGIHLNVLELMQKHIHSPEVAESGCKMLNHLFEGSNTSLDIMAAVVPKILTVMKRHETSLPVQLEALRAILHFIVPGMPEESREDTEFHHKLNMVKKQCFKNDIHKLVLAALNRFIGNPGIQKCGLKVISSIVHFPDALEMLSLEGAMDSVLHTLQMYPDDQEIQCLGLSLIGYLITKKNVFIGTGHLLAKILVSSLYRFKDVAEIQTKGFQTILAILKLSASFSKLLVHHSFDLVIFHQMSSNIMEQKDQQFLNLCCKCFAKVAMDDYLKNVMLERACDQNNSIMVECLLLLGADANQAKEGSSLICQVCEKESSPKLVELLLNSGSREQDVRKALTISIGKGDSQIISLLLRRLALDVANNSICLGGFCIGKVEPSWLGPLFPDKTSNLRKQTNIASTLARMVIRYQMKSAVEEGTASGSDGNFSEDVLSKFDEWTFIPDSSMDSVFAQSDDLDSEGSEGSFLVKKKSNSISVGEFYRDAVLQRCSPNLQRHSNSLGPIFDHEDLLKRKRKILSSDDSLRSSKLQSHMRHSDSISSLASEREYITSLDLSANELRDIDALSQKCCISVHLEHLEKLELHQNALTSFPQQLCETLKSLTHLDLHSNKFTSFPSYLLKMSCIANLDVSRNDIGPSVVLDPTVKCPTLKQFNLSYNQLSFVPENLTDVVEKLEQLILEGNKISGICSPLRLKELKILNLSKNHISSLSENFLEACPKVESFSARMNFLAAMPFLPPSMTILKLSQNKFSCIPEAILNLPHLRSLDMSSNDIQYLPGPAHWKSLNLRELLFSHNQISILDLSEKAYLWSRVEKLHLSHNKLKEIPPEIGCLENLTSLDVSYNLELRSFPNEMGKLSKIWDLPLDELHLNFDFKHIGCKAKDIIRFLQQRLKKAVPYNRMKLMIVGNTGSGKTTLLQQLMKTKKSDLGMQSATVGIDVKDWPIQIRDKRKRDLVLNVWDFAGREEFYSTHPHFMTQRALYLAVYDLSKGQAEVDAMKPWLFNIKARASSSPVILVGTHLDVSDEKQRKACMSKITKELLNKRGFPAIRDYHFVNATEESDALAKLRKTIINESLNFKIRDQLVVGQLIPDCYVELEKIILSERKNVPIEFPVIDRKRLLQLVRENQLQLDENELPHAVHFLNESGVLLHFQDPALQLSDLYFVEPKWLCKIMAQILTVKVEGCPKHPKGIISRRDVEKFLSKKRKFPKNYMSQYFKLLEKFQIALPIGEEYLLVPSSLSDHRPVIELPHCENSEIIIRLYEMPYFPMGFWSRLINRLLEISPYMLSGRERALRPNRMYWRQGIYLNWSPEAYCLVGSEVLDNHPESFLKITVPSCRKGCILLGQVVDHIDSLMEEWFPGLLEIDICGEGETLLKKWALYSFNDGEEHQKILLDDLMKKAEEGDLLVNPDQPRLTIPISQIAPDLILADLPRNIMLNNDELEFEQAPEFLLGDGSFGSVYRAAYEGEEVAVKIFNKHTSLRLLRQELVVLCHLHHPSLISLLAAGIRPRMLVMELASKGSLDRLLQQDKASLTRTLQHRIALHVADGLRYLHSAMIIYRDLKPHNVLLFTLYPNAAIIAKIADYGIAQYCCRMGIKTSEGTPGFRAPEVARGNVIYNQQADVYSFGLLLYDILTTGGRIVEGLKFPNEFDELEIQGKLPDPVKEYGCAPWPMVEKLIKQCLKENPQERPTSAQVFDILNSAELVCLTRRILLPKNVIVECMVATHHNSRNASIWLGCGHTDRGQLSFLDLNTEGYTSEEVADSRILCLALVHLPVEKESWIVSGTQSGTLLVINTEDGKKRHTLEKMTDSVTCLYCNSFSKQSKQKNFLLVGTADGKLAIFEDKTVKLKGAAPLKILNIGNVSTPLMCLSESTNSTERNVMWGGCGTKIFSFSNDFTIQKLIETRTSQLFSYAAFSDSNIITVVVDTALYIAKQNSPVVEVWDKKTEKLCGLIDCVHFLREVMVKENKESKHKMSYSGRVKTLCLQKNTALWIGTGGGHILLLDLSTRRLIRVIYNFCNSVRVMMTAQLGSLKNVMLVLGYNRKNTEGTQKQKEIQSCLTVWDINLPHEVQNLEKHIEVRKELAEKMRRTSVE
Chain of Serine/threonine-protein kinase SIK3 (Homo sapiens) (Q9Y2K2 whole entry, looked up): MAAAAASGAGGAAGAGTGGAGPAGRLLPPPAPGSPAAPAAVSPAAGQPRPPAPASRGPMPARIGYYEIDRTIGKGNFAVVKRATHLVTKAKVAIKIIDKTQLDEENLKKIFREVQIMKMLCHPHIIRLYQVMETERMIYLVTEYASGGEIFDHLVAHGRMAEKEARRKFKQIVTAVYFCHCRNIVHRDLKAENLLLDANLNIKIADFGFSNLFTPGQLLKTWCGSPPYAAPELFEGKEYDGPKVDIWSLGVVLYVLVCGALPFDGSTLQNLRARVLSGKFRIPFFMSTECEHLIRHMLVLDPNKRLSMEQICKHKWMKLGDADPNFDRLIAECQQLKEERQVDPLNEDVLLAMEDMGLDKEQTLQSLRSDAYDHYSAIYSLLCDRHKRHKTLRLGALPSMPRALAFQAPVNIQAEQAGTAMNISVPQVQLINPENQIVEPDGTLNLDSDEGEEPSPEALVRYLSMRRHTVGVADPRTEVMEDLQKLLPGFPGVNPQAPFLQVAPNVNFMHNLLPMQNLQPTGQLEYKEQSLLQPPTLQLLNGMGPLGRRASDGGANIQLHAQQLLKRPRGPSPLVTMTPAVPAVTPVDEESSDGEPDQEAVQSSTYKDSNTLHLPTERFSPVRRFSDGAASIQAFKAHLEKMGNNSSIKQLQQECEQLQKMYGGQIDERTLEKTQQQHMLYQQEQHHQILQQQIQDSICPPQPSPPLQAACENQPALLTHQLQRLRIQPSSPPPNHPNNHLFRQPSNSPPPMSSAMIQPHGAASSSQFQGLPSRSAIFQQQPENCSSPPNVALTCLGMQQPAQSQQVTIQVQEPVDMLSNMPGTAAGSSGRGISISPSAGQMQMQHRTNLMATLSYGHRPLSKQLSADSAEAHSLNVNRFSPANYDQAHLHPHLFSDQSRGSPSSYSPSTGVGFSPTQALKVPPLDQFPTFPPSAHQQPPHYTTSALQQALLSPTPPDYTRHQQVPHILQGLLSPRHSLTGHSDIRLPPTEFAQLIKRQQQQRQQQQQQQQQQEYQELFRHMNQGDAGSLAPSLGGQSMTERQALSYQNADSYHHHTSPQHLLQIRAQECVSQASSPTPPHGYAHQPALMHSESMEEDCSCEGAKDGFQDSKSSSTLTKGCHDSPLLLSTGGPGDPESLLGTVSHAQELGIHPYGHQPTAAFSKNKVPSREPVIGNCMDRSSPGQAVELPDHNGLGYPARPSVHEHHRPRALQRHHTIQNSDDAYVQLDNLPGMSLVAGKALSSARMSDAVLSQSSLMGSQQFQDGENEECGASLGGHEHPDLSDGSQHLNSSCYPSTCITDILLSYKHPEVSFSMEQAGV
Chain of Serine/threonine-protein kinase 10 (Homo sapiens) (O94804 whole entry, looked up): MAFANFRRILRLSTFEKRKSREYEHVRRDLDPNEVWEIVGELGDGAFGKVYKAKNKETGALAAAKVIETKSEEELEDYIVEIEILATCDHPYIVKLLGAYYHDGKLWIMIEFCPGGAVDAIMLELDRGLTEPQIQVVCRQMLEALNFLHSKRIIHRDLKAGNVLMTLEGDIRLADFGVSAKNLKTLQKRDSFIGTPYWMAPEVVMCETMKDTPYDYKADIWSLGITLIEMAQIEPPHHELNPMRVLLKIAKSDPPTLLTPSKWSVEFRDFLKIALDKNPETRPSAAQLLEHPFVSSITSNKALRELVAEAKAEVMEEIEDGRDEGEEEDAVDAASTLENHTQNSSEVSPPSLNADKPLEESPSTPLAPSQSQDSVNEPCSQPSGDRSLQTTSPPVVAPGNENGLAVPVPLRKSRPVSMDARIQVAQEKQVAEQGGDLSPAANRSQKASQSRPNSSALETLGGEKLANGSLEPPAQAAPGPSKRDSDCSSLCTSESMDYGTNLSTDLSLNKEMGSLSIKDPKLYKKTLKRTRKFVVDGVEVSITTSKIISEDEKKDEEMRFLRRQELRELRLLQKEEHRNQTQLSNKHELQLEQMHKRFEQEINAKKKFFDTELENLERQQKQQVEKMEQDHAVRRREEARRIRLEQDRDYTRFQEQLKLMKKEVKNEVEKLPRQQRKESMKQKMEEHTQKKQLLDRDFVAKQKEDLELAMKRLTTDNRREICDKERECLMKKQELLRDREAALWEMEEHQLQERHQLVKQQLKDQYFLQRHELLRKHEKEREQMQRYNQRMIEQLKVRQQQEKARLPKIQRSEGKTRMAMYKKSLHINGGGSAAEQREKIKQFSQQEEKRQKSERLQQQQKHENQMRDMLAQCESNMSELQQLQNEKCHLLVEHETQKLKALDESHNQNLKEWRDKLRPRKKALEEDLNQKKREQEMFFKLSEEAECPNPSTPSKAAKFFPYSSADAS
Chain of Cyclin-dependent kinase 1 (Homo sapiens) (P06493 whole entry, looked up): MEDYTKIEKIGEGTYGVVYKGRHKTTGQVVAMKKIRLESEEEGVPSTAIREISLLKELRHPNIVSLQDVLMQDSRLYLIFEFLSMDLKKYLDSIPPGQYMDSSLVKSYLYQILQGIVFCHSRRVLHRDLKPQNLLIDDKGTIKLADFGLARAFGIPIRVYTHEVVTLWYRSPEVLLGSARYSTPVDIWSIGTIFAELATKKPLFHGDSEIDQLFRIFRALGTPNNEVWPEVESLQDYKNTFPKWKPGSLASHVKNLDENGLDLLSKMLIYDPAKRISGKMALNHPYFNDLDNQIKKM

Compound `CC(C)n1cc(-c2cc(-c3ccc(CN4CCOCC4)cc3)cnc2N)nn1` has an inhibition [1] of 34.8%, an inhibition [2] of 34.8% and an inhibition [3] of 17.3%. It also gave an inhibition [4] of 17.5%, an inhibition [5] of 11.4% and an inhibition [6] of -9.6%. It also gave an inhibition [7] of 3.8%, an inhibition [8] of 48.5% and an inhibition [9] of -0.5%. The inhibition [10] was 4%, the inhibition [11] was -2.2% and the inhibition [12] was 26%. The inhibition [13] was -7.5%, the inhibition [14] was 14.4% and the inhibition [15] was 13.8%. For the same compound, the inhibition [16] was 0.5%, the inhibition [17] was 0.5% and the inhibition [18] was 13%. It also gave an inhibition [19] of 10.9%.
